Measurements published in PubChem BioAssay (NCI).
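Following 48 hours of exposure in 96-well plates, responses at five concentrations were used to interpolate endpoints linearly. The concentration for 50% growth inhibition is given as GI50. The concentration for full growth arrest is given as TGI.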

Legend:
Experiment in all cases: NCI-60 cell line screen, 48 h; in the data active means GI50 below about 0.43 µM; inactive means the rest
OVCAR-3 ovarian = system: OVCAR-3 ovarian
HCT-116 colon = system: HCT-116 colon
BT-549 breast = system: BT-549 breast
HOP-62 NSCLC = system: HOP-62 NSCLC
T-47D breast = system: T-47D breast
NCI-H522 lung = system: NCI-H522 lung
MOLT-4 leukemia = system: MOLT-4 leukemia
SK-OV-3 ovarian = system: SK-OV-3 ovarian
NCI/ADR-RES ovarian = system: NCI/ADR-RES ovarian
MALME-3M melanoma = system: MALME-3M melanoma
SK-MEL-5 melanoma = system: SK-MEL-5 melanoma
U251 CNS = system: U251 CNS
M14 melanoma = system: M14 melanoma
SF-295 CNS = system: SF-295 CNS
786-0 renal = system: 786-0 renal
OVCAR-5 ovarian = system: OVCAR-5 ovarian
COLO 205 colon = system: COLO 205 colon
A498 renal = system: A498 renal
SF-539 CNS = system: SF-539 CNS
EKVX NSCLC = system: EKVX NSCLC
HL-60(TB) leukemia = system: HL-60(TB) leukemia
NCI-H226 lung = system: NCI-H226 lung
K-562 leukemia = system: K-562 leukemia
UACC-257 melanoma = system: UACC-257 melanoma
OVCAR-8 ovarian = system: OVCAR-8 ovarian
UO-31 renal = system: UO-31 renal
SW-620 colon = system: SW-620 colon
NCI-H460 lung = system: NCI-H460 lung
HT29 colon = system: HT29 colon
DU-145 prostate = system: DU-145 prostate
SNB-75 CNS = system: SNB-75 CNS
RPMI-8226 leukemia = system: RPMI-8226 leukemia
MDA-MB-231 breast = system: MDA-MB-231 breast
A549 NSCLC = system: A549 NSCLC
HOP-92 NSCLC = system: HOP-92 NSCLC
SNB-19 CNS = system: SNB-19 CNS
SR leukemia = system: SR leukemia
NCI-H23 lung = system: NCI-H23 lung
IGROV1 ovarian = system: IGROV1 ovarian
SN12C renal = system: SN12C renal
LOX IMVI melanoma = system: LOX IMVI melanoma
MCF7 breast = system: MCF7 breast
UACC-62 melanoma = system: UACC-62 melanoma
PC-3 prostate = system: PC-3 prostate
TK-10 renal = system: TK-10 renal
CAKI-1 renal = system: CAKI-1 renal
CCRF-CEM leukemia = system: CCRF-CEM leukemia
HCT-15 colon = system: HCT-15 colon
MDA-MB-435 = system: MDA-MB-435
SK-MEL-2 melanoma = system: SK-MEL-2 melanoma
OVCAR-4 ovarian = system: OVCAR-4 ovarian
HCC-2998 colon = system: HCC-2998 colon
KM12 colon = system: KM12 colon
SF-268 CNS = system: SF-268 CNS
ACHN renal = system: ACHN renal
RXF 393 renal = system: RXF 393 renal
SK-MEL-28 melanoma = system: SK-MEL-28 melanoma

O=C1Nc2ccccc2/C1=C/C(=O)c1ccc(N2CCCC2)cc1
4.24 µM: TGI (HCT-116 colon)
> 100 µM: TGI (BT-549 breast) | TGI (HOP-62 NSCLC) | TGI (NCI-H522 lung) | TGI (SK-OV-3 ovarian) | TGI (MALME-3M melanoma) | TGI (SK-MEL-5 melanoma) | TGI (U251 CNS) | TGI (SF-295 CNS) | TGI (786-0 renal) | TGI (OVCAR-5 ovarian) | TGI (A498 renal) | TGI (EKVX NSCLC) | TGI (NCI-H226 lung) | TGI (K-562 leukemia) | TGI (UACC-257 melanoma) | TGI (UO-31 renal) | TGI (DU-145 prostate) | TGI (MDA-MB-231 breast) | TGI (A549 NSCLC) | TGI (SNB-19 CNS) | TGI (NCI-H23 lung) | TGI (SN12C renal) | TGI (MCF7 breast) | TGI (TK-10 renal) | TGI (CAKI-1 renal) | TGI (CCRF-CEM leukemia) | TGI (MDA-MB-435) | TGI (SK-MEL-2 melanoma) | TGI (OVCAR-4 ovarian)
4.83 µM: TGI (OVCAR-3 ovarian)
4.5 µM: TGI (OVCAR-8 ovarian)
7.11 µM: TGI (HOP-92 NSCLC)
4.75 µM: TGI (SF-539 CNS)
inactive: GI50 (OVCAR-3 ovarian) 1.79 µM | GI50 (HCT-116 colon) 1.56 µM | GI50 (BT-549 breast) 3.27 µM | GI50 (HOP-62 NSCLC) 2.47 µM | GI50 (T-47D breast) 2.12 µM | GI50 (NCI-H522 lung) 2.28 µM | GI50 (MOLT-4 leukemia) 2.02 µM | GI50 (SK-OV-3 ovarian) 3.4 µM | GI50 (NCI/ADR-RES ovarian) 2.15 µM | GI50 (MALME-3M melanoma) 2.84 µM | GI50 (SK-MEL-5 melanoma) 2.96 µM | GI50 (U251 CNS) 2.89 µM | GI50 (M14 melanoma) 2.28 µM | GI50 (SF-295 CNS) 3.96 µM | GI50 (786-0 renal) 2.84 µM | GI50 (OVCAR-5 ovarian) 4.54 µM | GI50 (COLO 205 colon) 1.67 µM | GI50 (A498 renal) 3.45 µM | GI50 (SF-539 CNS) 2.11 µM | GI50 (EKVX NSCLC) 6.09 µM | GI50 (HL-60(TB) leukemia) 1.24 µM | GI50 (NCI-H226 lung) 4.35 µM | GI50 (K-562 leukemia) 0.833 µM | GI50 (UACC-257 melanoma) 4.3 µM | GI50 (OVCAR-8 ovarian) 1.62 µM | GI50 (UO-31 renal) 2.14 µM | GI50 (NCI-H460 lung) 2.86 µM | GI50 (HT29 colon) 1.2 µM | GI50 (DU-145 prostate) 3.2 µM | GI50 (SNB-75 CNS) 2.05 µM | GI50 (RPMI-8226 leukemia) 1.98 µM | GI50 (MDA-MB-231 breast) 3.73 µM | GI50 (A549 NSCLC) 3.34 µM | GI50 (HOP-92 NSCLC) 1.75 µM | GI50 (SNB-19 CNS) 3.8 µM | GI50 (NCI-H23 lung) 5.2 µM | GI50 (IGROV1 ovarian) 1.71 µM | GI50 (SN12C renal) 3.26 µM | GI50 (LOX IMVI melanoma) 1.73 µM | GI50 (MCF7 breast) 2.05 µM | GI50 (UACC-62 melanoma) 2.78 µM | GI50 (PC-3 prostate) 1.77 µM | GI50 (TK-10 renal) 3.24 µM | GI50 (CAKI-1 renal) 1.2 µM | GI50 (CCRF-CEM leukemia) 2 µM | GI50 (HCT-15 colon) 0.686 µM | GI50 (MDA-MB-435) 1.25 µM | GI50 (SK-MEL-2 melanoma) 3.87 µM | GI50 (OVCAR-4 ovarian) 3.1 µM
8.17 µM: TGI (NCI-H460 lung)
3.01 µM: TGI (SW-620 colon)
active: GI50 (SW-620 colon) 0.339 µM | GI50 (SR leukemia) 0.327 µM
6.91 µM: TGI (SNB-75 CNS)
3.56 µM: TGI (LOX IMVI melanoma)
8.04 µM: TGI (PC-3 prostate)
6.5 µM: TGI (NCI/ADR-RES ovarian)
5.31 µM: TGI (RPMI-8226 leukemia)
22.3 µM: TGI (M14 melanoma)
9.07 µM: TGI (IGROV1 ovarian)
6.38 µM: TGI (T-47D breast)
4.56 µM: TGI (HL-60(TB) leukemia)
4.42 µM: TGI (SR leukemia)
9.81 µM: TGI (UACC-62 melanoma)
4.96 µM: TGI (COLO 205 colon)
9.7 µM: TGI (HCT-15 colon)

O=CC12c3ccccc3C(c3ccccc31)C1C(=O)NC(=O)C12 (stereo not given)
> 100 µM: TGI (HCC-2998 colon) | TGI (OVCAR-3 ovarian) | TGI (HCT-116 colon) | TGI (HOP-62 NSCLC) | TGI (T-47D breast) | TGI (NCI-H522 lung) | TGI (MOLT-4 leukemia) | TGI (SK-OV-3 ovarian) | TGI (NCI/ADR-RES ovarian) | TGI (MALME-3M melanoma) | TGI (SK-MEL-5 melanoma) | TGI (U251 CNS) | TGI (M14 melanoma) | TGI (SF-295 CNS) | TGI (786-0 renal) | TGI (OVCAR-5 ovarian) | TGI (COLO 205 colon) | TGI (SF-539 CNS) | TGI (EKVX NSCLC) | TGI (HL-60(TB) leukemia) | TGI (KM12 colon) | TGI (SF-268 CNS) | TGI (NCI-H226 lung) | TGI (ACHN renal) | TGI (K-562 leukemia) | TGI (UACC-257 melanoma) | TGI (OVCAR-8 ovarian) | TGI (UO-31 renal) | TGI (SW-620 colon) | TGI (NCI-H460 lung) | TGI (HT29 colon) | TGI (DU-145 prostate) | TGI (SNB-75 CNS) | TGI (MDA-MB-231 breast) | TGI (A549 NSCLC) | TGI (HOP-92 NSCLC) | TGI (SNB-19 CNS) | TGI (SR leukemia) | TGI (NCI-H23 lung) | TGI (IGROV1 ovarian) | TGI (SN12C renal) | TGI (LOX IMVI melanoma) | TGI (UACC-62 melanoma) | TGI (PC-3 prostate) | TGI (TK-10 renal) | TGI (CAKI-1 renal) | TGI (CCRF-CEM leukemia) | TGI (HCT-15 colon) | TGI (RXF 393 renal) | TGI (MDA-MB-435) | TGI (SK-MEL-2 melanoma) | TGI (SK-MEL-28 melanoma) | TGI (OVCAR-4 ovarian)
48.2 µM: TGI (A498 renal)
47.7 µM: TGI (MCF7 breast)
